Like-named read-outs stand apart in the source and are kept apart here.
Test: pKa of boronic acid monomer
Type: physicochemical
Conditions: monomer forming the repeating units of the copolymer

| pKa (read-out: pKa) | SMILES | pKa |
| --- | --- | --- |
| ~8.1 | C=CC(=O)Nc1cccc(B(O)O)c1 [APBA, 3-(acrylamido)phenylboronic acid] | – |
| – | C=CC(=O)NCCNC(=O)c1ccc(B(O)O)cc1Cl [CPBA] | about 7.2 |

Reference: US20250276007A1, “CARBAMOYLPHENYLBORONIC ACID-CONTAINING ACRYLIC MONOMERS AND USES THEREOF” (Alcon Inc., priority 2024, published 2025)
